In BindingDB's records for doi:10.1016/j.bmcl.2009.03.129 (Wyeth Research, 2009):

Biological target: 3-phosphoinositide-dependent protein kinase 1 (PDPK1) (Homo sapiens) (UniProt O15530)
Test: Inhibition of PDK1

IC50: > 10 µM
Compound: CCOC(=O)c1cnn2c(-c3cccc(NC(=O)c4cccc(C(F)(F)F)c4)c3)ccnc12 [ethyl 7-(3-(3-(trifluoromethyl)benzamido)phenyl)pyrazolo[1,5-a]pyrimidine-3-carboxylate]
